Test [1] has as its target T1, full length human wildtype Btk (Homo sapiens, UniProt Q06187).
T1 construct: V5 (C); 6xHis (C); made in house; host or cells: Sf9 cells (baculovirus, pFastBac)
Put plainly: Biochemical Btk Kinase Assay (Example 901). The note with it: read-out: BTK LC3K (Ki). As for the experimental part: Formula I compounds were tested by a standard biochemical Btk, Kinase Assay (Example 901). A generalized procedure for a standard biochemical Btk, Kinase Assay that can be used to test Formula I compounds is as follows. A master mix minus Btk enzyme is prepared containing 1× Cell Signaling kinase buffer (25 mM Tris-HCl, pH 7.5, 5 mM beta-glycerophosphate, 2 mM dithiothreitol, 0.1 mM Na3VO4, 10 mM MgCl2), 0.5 μM Promega PTK Biotinylated peptide substrate 2, and 0.01% BSA. A master mix plus Btk enzyme is prepared containing 1× Cell Signaling kinase buffer, 0.5 μM (micromolar) PTK Biotinylated peptide substrate 2, 0.01% BSA, and 100 ng/well (0.06 mU/well) Btk enzyme. Btk enzyme is prepared as follows: full length human wildtype Btk (accession number NM-000061) with a C-terminal V5 and 6×His tag was subcloned into pFastBac® vector (Invitrogen/Life Technologies) for making baculovirus carrying this epitope-tagged Btk. Generation of baculovirus is done based on Invitrogen's instructions detailed in its published protocol “Bac-to-Bac Baculovirus Expression Systems” (Invitrogen/Life Technologies, Cat. Nos. 10359-016 and 10608-016). Passage 3 virus is used to infect Sf9 cells to overexpress the recombinant Btk protein. The Btk protein is then purified to homogeneity using Ni-NTA column. The purity of the final protein preparation is greater than 95% based on the sensitive Sypro-Ruby staining. A solution of 200 μM ATP is prepared in water and adjusted to pH 7.4 with 1N NaOH. A quantity of 1.25 μL (microliter) of compounds in 5% DMSO is transferred to a 96-well 2 area Costar polystyrene plate. Compounds are tested singly and with an 11-point dose-responsive curve (starting concentration is 10 μM; 1:2 dilution). A quantity of 18.75 μL of master mix minus enzyme (as a negative control) and master mix plus enzyme is transferred to appropriate wells in 96-well 2 area costar polystyrene plate. 5 μL of 200 μM ATP is added to that mixture in the 96-well 2 area Costar polystyrene plate for final ATP concentration of 40 μM. The reaction is allowed to incubate for 1 hour at room temperature. The reaction is stopped with Perkin Elmer 1× detection buffer containing 30 mM EDTA, 20 nM SA-APC, and 1 nM PT66 Ab. The plate is read using time-resolved fluorescence with a Perkin Elmer Envision using excitation filter 330 nm, emission filter 665 nm, and 2nd emission filter 615 nm. IC50 values are subsequently calculated. Alternatively, the Lanthascreen assay can be used to evaluate Btk activity through quantification of its phosphorylated peptide product. The FRET (Fluorescence Resonance Energy Transfer) that occurs between the fluorescein on the peptide product and the terbium on the detection antibody decreases with the addition of inhibitors of Btk that reduce the phosphorylation of the peptide. In a final reaction volume of 25 μL (microliters), Btk (h) (0.1 ng/25 μl reaction) is incubated with 50 mM Hepes pH 7.5, 10 mM MgCl2, 2 mM MnCl2, 2 mM DTT, 0.2 mM NaVO4, 0.01% BSA, and 0.4 uM fluorescein poly-GAT. The reaction is initiated by the addition of ATP to 25 μM (micromolar) the Km of ATP. After incubation for 60 minutes at room temperature, the reaction is stopped by the addition of a final concentration of 2 nM Tb-PY20 detection antibody in 60 mM EDTA for 30 minutes at room temperature. Detection is determined on a Perkin Elmer Envision with 340 nm excitation and emission at 495 nm and 520 nm. Exemplary Btk inhibition […] values are in Table 1.

For test [2], the system named is CD69 production by B lymphocytes in human whole blood activated with goat F(ab')2 anti-human IgM. Put plainly: CD69 Whole Blood Assay (Example 907). The class given is cell-based. The following applies: Lymphocyte; human whole blood, anti-IgM stimulated, 20 hour incubation, CD20 positive cells, FACS; read-out: CD69 Hu Blood FACS (IC70). An excerpt:
A CD69 Whole Blood Assay can be conducted on Formula I compounds to determine the ability of compounds to inhibit the production of CD69 by B lymphocytes in human whole blood activated by crosslinking surface IgM with goat F(ab′)2 anti-human IgM (Example 907). CD69 is a type II C-type lectin involved in lymphocyte migration and cytokine secretion. CD69 expression represents one of the earliest available indicators of leukocyte activation and its rapid induction occurs through transcriptional activation (Vazquez et al (2009) Jour. of Immunology Published Oct. 19, 2009, doi: 10.4049/jimmunol.0900839). Concentration-dependent inhibition of antigen receptor stimulation by selective Btk inhibitors induces cell surface expression of the lymphocyte activation marker CD69 (Honigberg et al (2010) Proc. Natl. Acad. Sci. 107(29):13075-13080). Thus, CD69 inhibition by selective Btk inhibitors may be correlated with therapeutic efficacy of certain B-cell disorders.
Human blood is obtained from healthy volunteers, with the following restrictions: 1 week drug-free, non-smokers. Blood (approximately 20 mls to test 8 compounds) is collected by venipuncture into Vacutainer® (Becton, Dickinson and Co.) tubes with sodium heparin.
Solutions of Formula I compounds at 10 mM in DMSO are diluted 1:10 in 100% DMSO, then are diluted by three-fold serial dilutions in 100% DMSO for a ten point dose-response curve. The compounds are further diluted 1:10 in PBS and then an aliquot of 5.5 μl of each compound is added in duplicate to a 2 ml 96-well plate; 5.5 μl of 10% DMSO in PBS is added as control and no-stimulus wells. Human whole blood—HWB (100 μl) is added to each well. After mixing the plates are incubated at 37° C., 5% CO2, 100% humidity for 30 minutes. Goat F(ab′)2 anti-human IgM (10 μl of a 500 μg/ml solution, 50 μg/ml final) is added to each well (except the no-stimulus wells) with mixing and the plates are incubated for an additional 20 hours. At the end of the 20 hour incubation, samples are incubated with fluorescent labeled antibodies for 30 minutes, at 37° C., 5% CO2, 100% humidity. Include induced control, unstained and single stains for compensation adjustments and initial voltage settings. Samples are then lysed with PharM Lyse™ (BD Biosciences Pharmingen) according to the manufacturer's instructions. Samples are then transferred to a 96 well plate suitable to be run on the BD Biosciences HTS 96 well system on the LSRII machine. Data acquired and Mean Fluorescence Intensity values were obtained using BD Biosciences DIVA Software. Results are initially analyzed by FACS analysis software (Flow Jo).

The structures appear in SMILES notation.

T1 sequence (Q06187 whole entry): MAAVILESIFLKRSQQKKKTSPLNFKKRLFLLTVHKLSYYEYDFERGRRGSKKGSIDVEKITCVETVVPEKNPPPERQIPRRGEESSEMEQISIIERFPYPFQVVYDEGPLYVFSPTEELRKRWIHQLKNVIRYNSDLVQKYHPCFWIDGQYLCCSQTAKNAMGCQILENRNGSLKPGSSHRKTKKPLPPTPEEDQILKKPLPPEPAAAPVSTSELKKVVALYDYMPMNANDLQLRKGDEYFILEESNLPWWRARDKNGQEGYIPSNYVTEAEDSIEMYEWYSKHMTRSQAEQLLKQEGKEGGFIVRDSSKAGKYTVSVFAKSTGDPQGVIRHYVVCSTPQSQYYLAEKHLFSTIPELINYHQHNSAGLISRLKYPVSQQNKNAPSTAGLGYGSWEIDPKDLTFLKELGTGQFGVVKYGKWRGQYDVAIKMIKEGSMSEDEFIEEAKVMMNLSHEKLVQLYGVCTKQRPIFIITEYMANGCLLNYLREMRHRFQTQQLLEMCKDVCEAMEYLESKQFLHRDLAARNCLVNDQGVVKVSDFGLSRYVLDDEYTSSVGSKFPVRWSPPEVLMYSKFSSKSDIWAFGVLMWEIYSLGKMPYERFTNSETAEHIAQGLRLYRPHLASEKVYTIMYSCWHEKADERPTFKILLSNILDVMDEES

Broadly, the Ki is the dissociation constant of the complex between target and ligand, obtained from inhibition or displacement. For orientation: IC70 means the concentration at which the effect reaches the 70% level. Take `Cn1cc(-c2nn(-c3ccnc(-n4ncc5cc(C(C)(C)C)cc(F)c5c4=O)c3CO)cc2C(N)=O)cn1` [Example 115, 1-[2-(6-tert-butyl-8-fluoro-1-oxo-phthalazin-2-yl)-3-(hydroxymethyl)-4-pyridyl]-3-(1-methylpyrazol-4-yl)pyrazole-4-carboxamide]: the Ki in test [1] is 0.997 nM. Moreover, the IC70 in test [2] was determined as 268 nM.

Turning to `Cn1cc(Nc2nn(-c3cccc(N4CCn5c(cc6c5CC(C)(C)C6)C4=O)c3CO)cc2C(N)=O)nn1` [Example 105, 1-[3-(7,7-dimethyl-4-oxo-1,2,6,8-tetrahydrocyclopenta[3,4]pyrrole[3,5-b]pyrazin-3-yl)-2-(hydroxymethyl)phenyl]-3-[(1-methyltriazol-4-yl)amino]pyrazole-4-carboxamide], the Ki in test [1] was 0.326 nM. In test [2], the IC70 stood at 32.3 nM.

As to `Cn1cc(Nc2nn(-c3ccnc(-n4ncc5cc(C(C)(C)C)cc(F)c5c4=O)c3CO)cc2C(N)=O)nn1` [Example 111, 1-[2-(6-tert-butyl-8-fluoro-1-oxo-phthalazin-2-yl)-3-(hydroxymethyl)-4-pyridyl]-3-[(1-methyltriazol-4-yl)amino]pyrazole-4-carboxamide], the Ki in test [1] is 0.131 nM. The 70% effect concentration (IC70) in test [2] amounted to 77.3 nM.

Regarding `CC1(C)Cc2cc3n(c2C1)CCN(c1nccc(-n2nc(C(N)=O)c4ccccc42)c1CO)C3=O` [Example 108, 1-[2-(7,7-dimethyl-4-oxo-1,2,6,8-tetrahydrocyclopenta[3,4]pyrrolo[3,5-b]pyrazin-3-yl)-3-(hydroxymethyl)-4-pyridyl]indazole-3-carboxamide], the Ki in test [1] stood at 1.83 nM. Besides, the IC70 in test [2] was determined as 726 nM.

Consider `CC(C)(C)c1cc(F)c2c(=O)n(-c3nccc(-n4cc(C(N)=O)c(-c5cnn(C(F)F)c5)n4)c3CO)ncc2c1` [Example 121, 1-[2-(6-tert-butyl-8-fluoro-1-oxo-phthalazin-2-yl)-3-(hydroxymethyl)-4-pyridyl]-3-[1-(difluoromethyl)pyrazol-4-yl]pyrazole-4-carboxamide], for which the inhibition constant (Ki) in test [1] was 1.15 nM. In addition, the IC70 in test [2] is 1400 nM.

`CC1(C)Cc2cc3n(c2C1)CCN(c1nccc(-n2cc(NC(=O)C4CC4)c(C(N)=O)n2)c1CO)C3=O` [Example 109, 4-(cyclopropanecarbonylamino)-1-[2-(7,7-dimethyl-4-oxo-1,2,6,8-tetrahydrocyclopenta[3,4]pyrrolo[3,5-b]pyrazin-3-yl)-3-(hydroxymethyl)-4-pyridyl]pyrazole-3-carboxamide]: in test [1], the Ki came to 0.924 nM. Further, the IC70 in test [2] was 47.4 nM.

For `CC1(C)Cc2cc3n(c2C1)CCN(c1nccc(-n2nc(C(N)=O)c4cccnc42)c1CO)C3=O` [Example 110, 1-[2-(7,7-dimethyl-4-oxo-1,2,6,8-tetrahydrocyclopenta[3,4]pyrrolo[3,5-b]pyrazin-3-yl)-3-(hydroxymethyl)-4-pyridyl]pyrazolo[3,4-b]pyridine-3-carboxamide], the inhibition constant Ki in test [1] was 3.32 nM. For the same molecule, in test [2], the concentration for an effect of 70% (IC70) was found to be 5300 nM.

For the molecule `CC1(C)Cc2cc3n(c2C1)CCN(c1nccc(-n2cc(C(N)=O)c(NC(=O)C4CC4)n2)c1CO)C3=O` [Example 107, 3-(cyclopropanecarbonylamino)-1-[2-(7,7-dimethyl-4-oxo-1,2,6,8-tetrahydrocyclopenta[3,4]pyrrolo[3,5-b]pyrazin-3-yl)-3-(hydroxymethyl)-4-pyridyl]pyrazole-4-carboxamide], in test [1], the Ki turned out to be 0.615 nM. For the same molecule, in test [2], the IC70 turned out to be 52.1 nM.

As to `C[C@H]1CN(C2COC2)CCN1c1ccc(Nc2nn(-c3ccnc(-n4ncc5cc(C(C)(C)C)cc(F)c5c4=O)c3CO)cc2C(N)=O)nc1` [Example 120, 1-[2-(6-tert-butyl-8-fluoro-1-oxo-phthalazin-2-yl)-3-(hydroxymethyl)-4-pyridyl]-3-[[5-[(2S)-2-methyl-4-(oxetan-3-yl)piperazin-1-yl]-2-pyridyl]amino]pyrazole-4-carboxamide], the Ki in test [1] turned out to be 0.106 nM. In addition, the IC70 in test [2] worked out at 98.6 nM.

Take `Cn1cc(-c2nn(-c3cc(F)cc(-n4ncc5cc(C(C)(C)C)cc(F)c5c4=O)c3CO)cc2C(N)=O)cn1` [Example 127, 1-[3-(6-tert-butyl-8-fluoro-1-oxo-phthalazin-2-yl)-5-fluoro-2-(hydroxymethyl)phenyl]-3-(1-methylpyrazol-4-yl)pyrazole-4-carboxamide]: the inhibition constant Ki in test [1] amounted to 1.3 nM. Further, in test [2], the IC70 was 5000 nM.

Consider `C[C@H]1CN(C2COC2)CCN1c1ccc(Nc2cn(-c3ccnc(N4CCn5c(cc6c5CC(C)(C)C6)C4=O)c3CO)nc2C(N)=O)nc1` [Example 126, 1-[2-(7,7-dimethyl-4-oxo-1,2,6,8-tetrahydrocyclopenta[3,4]pyrrolo[3,5-b]pyrazin-3-yl)-3-(hydroxymethyl)-4-pyridyl]-4-[[5-[(2S)-2-methyl-4-(oxetan-3-yl)piperazin-1-yl]-2-pyridyl]amino]pyrazole-3-carboxamide], for which the Ki in test [1] worked out at 0.156 nM. Also, the 70% effect concentration (IC70) in test [2] was determined as 6.4 nM.

Take `CC1(C)Cc2cc3n(c2C1)CCN(c1nccc(-n2cc(C(N)=O)c(NC(=O)[C@@H]4C[C@@H]4F)n2)c1CO)C3=O` [Example 112, 1-[2-(7,7-dimethyl-4-oxo-1,2,6,8-tetrahydrocyclopenta[3,4]pyrrolo[3,5-b]pyrazin-3-yl)-3-(hydroxymethyl)-4-pyridyl]-3-[(2-fluorocyclopropanecarbonyl)amino]pyrazole-4-carboxamide]: the Ki in test [1] was 0.436 nM. The IC70 in test [2] is 100 nM.

Consider `Cc1nn(C)cc1-c1nn(-c2ccnc(-n3ncc4cc(C(C)(C)C)cc(F)c4c3=O)c2CO)cc1C(N)=O` [Example 122, 1-[2-(6-tert-butyl-8-fluoro-1-oxo-phthalazin-2-yl)-3-(hydroxymethyl)-4-pyridyl]-3-(1,3-dimethylpyrazol-4-yl)pyrazole-4-carboxamide], for which the Ki in test [1] is 8.6 nM. Further, the 70% effect concentration (IC70) in test [2] came to 3300 nM.

Source of the values: patent US20190194209A1, “PYRAZOLE CARBOXAMIDE COMPOUNDS AND METHODS OF USE” (Genentech, Inc., priority 2014, published 2019).
